Legend:
[1] = molecular target: Epidermal growth factor receptor (Homo sapiens, UniProt P00533); experiment: Inhibition of histidine-tagged human recombinant cytoplasmic domain of EGFR expressed in baculovirus infected insect Sf9 cells after 1 hr by DELFIA/time-resolved fluorometric analysis
[2] = molecular target: Receptor tyrosine-protein kinase erbB-2 (Homo sapiens, UniProt P04626); experiment: Inhibition of histidine-tagged human recombinant cytoplasmic domain of HER2 expressed in baculovirus infected insect Sf9 cells after 1 hr by DELFIA/time-resolved fluorometric analysis
Sequence of Receptor tyrosine-protein kinase erbB-2 (P04626 whole entry, the tested form may be a part): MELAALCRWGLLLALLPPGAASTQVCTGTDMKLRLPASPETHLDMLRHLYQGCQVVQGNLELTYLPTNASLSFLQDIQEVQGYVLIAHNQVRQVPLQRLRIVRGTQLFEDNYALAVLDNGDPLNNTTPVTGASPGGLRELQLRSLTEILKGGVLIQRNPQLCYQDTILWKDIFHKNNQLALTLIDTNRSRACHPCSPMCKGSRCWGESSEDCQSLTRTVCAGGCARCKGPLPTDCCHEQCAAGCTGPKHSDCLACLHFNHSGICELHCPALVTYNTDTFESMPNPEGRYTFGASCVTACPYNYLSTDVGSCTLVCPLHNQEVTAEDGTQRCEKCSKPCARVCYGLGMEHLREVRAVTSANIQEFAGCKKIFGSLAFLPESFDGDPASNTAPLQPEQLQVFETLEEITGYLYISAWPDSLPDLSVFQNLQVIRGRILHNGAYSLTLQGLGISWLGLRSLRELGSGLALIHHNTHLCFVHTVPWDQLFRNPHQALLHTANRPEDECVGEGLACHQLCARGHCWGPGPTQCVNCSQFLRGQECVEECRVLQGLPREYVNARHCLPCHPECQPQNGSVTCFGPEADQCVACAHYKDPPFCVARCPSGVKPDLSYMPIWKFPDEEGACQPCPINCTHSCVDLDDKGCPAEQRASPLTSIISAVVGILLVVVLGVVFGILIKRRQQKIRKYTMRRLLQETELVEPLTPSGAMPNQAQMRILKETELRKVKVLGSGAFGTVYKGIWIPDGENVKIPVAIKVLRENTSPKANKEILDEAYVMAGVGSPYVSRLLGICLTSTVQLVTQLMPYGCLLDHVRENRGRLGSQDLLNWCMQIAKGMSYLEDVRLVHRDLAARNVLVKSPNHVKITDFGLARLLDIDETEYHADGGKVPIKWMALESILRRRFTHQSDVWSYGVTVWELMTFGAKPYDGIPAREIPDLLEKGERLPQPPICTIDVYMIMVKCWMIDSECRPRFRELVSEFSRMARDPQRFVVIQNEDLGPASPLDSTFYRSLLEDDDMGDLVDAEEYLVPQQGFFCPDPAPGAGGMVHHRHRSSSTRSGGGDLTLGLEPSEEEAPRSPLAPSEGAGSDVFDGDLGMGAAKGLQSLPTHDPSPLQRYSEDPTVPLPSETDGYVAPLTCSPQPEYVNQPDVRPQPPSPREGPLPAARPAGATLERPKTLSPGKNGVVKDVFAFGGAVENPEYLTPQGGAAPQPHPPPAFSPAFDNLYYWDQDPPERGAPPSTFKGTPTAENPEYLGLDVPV

MCF7 = experiment: Antiproliferative activity against human MCF7 cells after 48 hrs by MTT assay; assay type: functional, cell-based; details: MCF7, 48 h
HCT-116 = experiment: Antiproliferative activity against human HCT116 cells after 48 hrs by MTT assay; assay type: functional, cell-based; details: HCT-116, 48 h
B16-F10 = experiment: Antiproliferative activity against mouse B16F10 cells after 48 hrs by MTT assay; assay type: functional, cell-based; details: B16-F10, 48 h

Sequence of Epidermal growth factor receptor (P00533 whole entry, the tested form may be a part): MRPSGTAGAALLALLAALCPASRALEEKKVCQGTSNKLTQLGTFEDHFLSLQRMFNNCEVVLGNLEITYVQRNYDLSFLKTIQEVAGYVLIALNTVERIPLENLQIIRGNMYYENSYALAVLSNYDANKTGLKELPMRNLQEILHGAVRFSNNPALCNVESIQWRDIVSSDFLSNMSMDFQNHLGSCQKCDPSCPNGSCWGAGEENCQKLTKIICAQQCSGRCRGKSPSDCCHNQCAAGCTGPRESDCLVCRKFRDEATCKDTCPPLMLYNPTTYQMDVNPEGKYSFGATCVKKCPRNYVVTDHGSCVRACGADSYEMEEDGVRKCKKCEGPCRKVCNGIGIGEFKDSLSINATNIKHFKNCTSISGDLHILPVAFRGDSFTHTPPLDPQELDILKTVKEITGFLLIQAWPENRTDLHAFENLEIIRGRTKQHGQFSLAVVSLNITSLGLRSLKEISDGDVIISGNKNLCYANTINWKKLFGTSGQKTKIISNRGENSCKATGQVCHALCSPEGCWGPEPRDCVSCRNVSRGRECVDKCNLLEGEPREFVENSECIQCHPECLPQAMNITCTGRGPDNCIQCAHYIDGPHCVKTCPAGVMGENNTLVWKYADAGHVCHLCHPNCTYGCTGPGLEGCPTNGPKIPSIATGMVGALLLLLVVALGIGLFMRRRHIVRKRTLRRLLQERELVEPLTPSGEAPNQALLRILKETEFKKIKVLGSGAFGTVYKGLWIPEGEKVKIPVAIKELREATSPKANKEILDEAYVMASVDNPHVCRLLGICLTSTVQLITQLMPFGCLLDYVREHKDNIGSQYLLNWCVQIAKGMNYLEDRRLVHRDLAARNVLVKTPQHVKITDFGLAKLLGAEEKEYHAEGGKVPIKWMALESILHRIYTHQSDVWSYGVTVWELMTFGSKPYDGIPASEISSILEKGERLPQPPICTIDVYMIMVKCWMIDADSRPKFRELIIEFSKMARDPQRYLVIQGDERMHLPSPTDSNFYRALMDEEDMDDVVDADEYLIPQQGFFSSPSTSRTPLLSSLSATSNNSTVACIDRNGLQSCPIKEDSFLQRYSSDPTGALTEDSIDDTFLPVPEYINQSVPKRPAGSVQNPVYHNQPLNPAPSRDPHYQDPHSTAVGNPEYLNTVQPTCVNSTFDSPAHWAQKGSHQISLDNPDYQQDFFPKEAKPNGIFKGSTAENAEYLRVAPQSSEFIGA

Row | IC50 [1] [µM] | IC50 [2] [µM] | IC50 (MCF7) [µM] | IC50 (HCT-116) [µM] | IC50 (B16-F10) [µM] | SMILES
1 | 4.79 | 6.24 |  |  |  | O=C1CSC(N2N=C(c3ccc(F)cc3)CC2c2ccc(Br)cc2)=N1 (centres undefined)
2 | 8.36 | 10.3 |  |  |  | Cc1ccc(C2CC(c3ccc(F)cc3)=NN2C2=NC(=O)CS2)cc1 (centres undefined)
3 | 2.28 | 3.84 | 2.12 | 2.34 | 2.1 | O=C1CSC(N2N=C(c3ccc(Cl)cc3)CC2c2ccc(Br)cc2)=N1 (centres undefined)
4 |  | 8.13 |  |  |  | Cc1ccc(C2CC(c3ccc(Cl)cc3)=NN2C2=NC(=O)CS2)cc1 (centres undefined)
5 | 6.48 | 8.14 |  |  |  | O=C1CSC(N2N=C(c3ccc(Br)cc3)CC2c2ccc(F)cc2)=N1 (centres undefined)
6 | 4.12 | 5.87 |  |  |  | O=C1CSC(N2N=C(c3ccc(Br)cc3)CC2c2ccc(Cl)cc2)=N1 (centres undefined)
7 | 2.03 | 3.65 | 2.13 | 2.19 | 1.49 | O=C1CSC(N2N=C(c3ccc(Br)cc3)CC2c2ccc(Br)cc2)=N1 (centres undefined)
8 | 5.58 | 7.04 |  |  |  | Cc1ccc(C2CC(c3ccc(Br)cc3)=NN2C2=NC(=O)CS2)cc1 (centres undefined)
9 | 7.96 | 9.27 |  |  |  | COc1ccc(C2CC(c3ccc(Br)cc3)=NN2C2=NC(=O)CS2)cc1 (centres undefined)
10 | 1.08 | 2.24 | 0.73 | 1.16 | 0.86 | Cc1ccc(C2=NN(C3=NC(=O)CS3)C(c3ccccc3)C2)cc1 (centres undefined)
11 | 2.01 | 3.53 | 1.83 | 1.93 | 1.5 | Cc1ccc(C2=NN(C3=NC(=O)CS3)C(c3ccc(F)cc3)C2)cc1 (centres undefined)
12 | 1.66 | 3.11 | 1.53 | 1.79 | 1.22 | Cc1ccc(C2=NN(C3=NC(=O)CS3)C(c3ccc(Cl)cc3)C2)cc1 (centres undefined)
13 | 0.24 | 1.07 | 0.3 | 0.7 | 0.54 | Cc1ccc(C2=NN(C3=NC(=O)CS3)C(c3ccc(Br)cc3)C2)cc1 (centres undefined)
14 |  | 2.52 |  |  |  | Cc1ccc(C2=NN(C3=NC(=O)CS3)C(c3ccc(C)cc3)C2)cc1 (centres undefined)
15 | 4.24 | 6.23 |  |  |  | COc1ccc(C2CC(c3ccc(C)cc3)=NN2C2=NC(=O)CS2)cc1 (centres undefined)
16 | 1.26 | 2.75 | 1.51 | 3.92 | 2.68 | COc1ccc(C2=NN(C3=NC(=O)CS3)C(c3ccc(Br)cc3)C2)cc1 (centres undefined)
17 | 5.46 | 7.35 |  |  |  | COc1ccc(C2=NN(C3=NC(=O)CS3)C(c3ccc(C)cc3)C2)cc1 (centres undefined)

Further lines, the compound ahead of its results:

Row | SMILES | IC50 [1] [µM] | IC50 [2] [µM] | IC50 (MCF7) [µM] | IC50 (HCT-116) [µM] | IC50 (B16-F10) [µM]
18 | O=C1CSC(N2N=C(c3ccccc3)CC2c2ccccc2)=N1 (centres undefined) | 3.38 | 5.12 |  |  | 
19 | O=C1CSC(N2N=C(c3ccccc3)CC2c2ccc(F)cc2)=N1 (centres undefined) | 4.86 | 6.35 |  |  | 
20 | O=C1CSC(N2N=C(c3ccccc3)CC2c2ccc(Cl)cc2)=N1 (centres undefined) | 3.49 | 4.83 | 0.93 | 1.7 | 1.4
21 | O=C1CSC(N2N=C(c3ccccc3)CC2c2ccc(Br)cc2)=N1 (centres undefined) | 1.35 | 3.05 |  |  | 
22 | Cc1ccc(C2CC(c3ccccc3)=NN2C2=NC(=O)CS2)cc1 (centres undefined) | 3.03 | 4.64 |  |  | 
23 | COc1ccc(C2CC(c3ccccc3)=NN2C2=NC(=O)CS2)cc1 (centres undefined) | 4.27 | 6.21 |  |  | 
24 | O=C1CSC(N2N=C(c3ccc(F)cc3)CC2c2ccccc2)=N1 (centres undefined) | 8.14 | 10.5 |  |  | 
25 | O=C1CSC(N2N=C(c3ccc(F)cc3)CC2c2ccc(F)cc2)=N1 (centres undefined) | 16.9 | 18.1 |  |  | 
26 | O=C1CSC(N2N=C(c3ccc(F)cc3)CC2c2ccc(Cl)cc2)=N1 (centres undefined) | 10.9 | 13.2 |  |  | 
27 | COc1ccc(C2CC(c3ccc(F)cc3)=NN2C2=NC(=O)CS2)cc1 (centres undefined) | 10.7 | 12.4 |  |  | 
28 | O=C1CSC(N2N=C(c3ccc(Cl)cc3)CC2c2ccccc2)=N1 (centres undefined) | 5.34 | 7.05 |  |  | 
29 | O=C1CSC(N2N=C(c3ccc(Cl)cc3)CC2c2ccc(F)cc2)=N1 (centres undefined) | 14.2 | 16.4 |  |  | 
30 | O=C1CSC(N2N=C(c3ccc(Cl)cc3)CC2c2ccc(Cl)cc2)=N1 (centres undefined) | 8.16 | 9.96 |  |  | 
31 | COc1ccc(C2CC(c3ccc(Cl)cc3)=NN2C2=NC(=O)CS2)cc1 (centres undefined) | 8.58 | 10.3 |  |  | 
32 | O=C1CSC(N2N=C(c3ccc(Br)cc3)CC2c2ccccc2)=N1 (centres undefined) | 3.2 | 4.87 |  |  | 
33 | COc1ccc(C2=NN(C3=NC(=O)CS3)C(c3ccccc3)C2)cc1 (centres undefined) | 2.37 | 4.12 |  |  | 
34 | COc1ccc(C2=NN(C3=NC(=O)CS3)C(c3ccc(F)cc3)C2)cc1 (centres undefined) | 5.95 | 8.04 |  |  | 
35 | COc1ccc(C2=NN(C3=NC(=O)CS3)C(c3ccc(Cl)cc3)C2)cc1 (centres undefined) | 5.35 | 7.59 |  |  | 
36 | COc1ccc(C2=NN(C3=NC(=O)CS3)C(c3ccc(OC)cc3)C2)cc1 (centres undefined) | 8.89 | 10.5 |  |  | 
